Measured values from article PMC6273746, “Molecular Mechanism of the Flavonoid Natural Product Dryocrassin ABBA against Staphylococcus aureus Sortase A” (Molecules, 2016).

How the values were obtained:
Format in all cases: binding
[1] = target: T1, sortase A (SrtA), WT-SrtA (Staphylococcus aureus, UniProt Q2FV99); test: fluorescence quenching (KA); also FRET inhibition of purified SrtA, IC50 […]
T1 construct: SrtA△N59, recombinant, GST tag cleaved

[2] = target: T2, sortase A (SrtA), V166A-SrtA (Staphylococcus aureus, UniProt Q2FV99, V166A); test: fluorescence quenching (KA); reduced inhibition versus WT in FRET assay at […]
T2 construct: SrtA△N59, recombinant, GST tag cleaved

[3] = target: T3, sortase A (SrtA), V168A-SrtA (Staphylococcus aureus, UniProt Q2FV99, V168A); test: as above
T3 construct: SrtA△N59, recombinant, GST tag cleaved

Molecule CCCC(=O)c1c(O)c(CC2=C(O)C(C)(C)C(=O)C(C(C)=O)=C2O)c(O)c(Cc2c(O)c(CC3=C(O)C(C)(C)C(=O)C(C(C)=O)=C3O)c(O)c(C(=O)CCC)c2O)c1O [ABBA, dryocrassin ABBA] has a Kd [1] of 2180 nM, a Kd [2] of 2300 nM and a Kd [3] of 2790 nM.
